The source of these data is patent US20220406434A1, “METHOD AND SYSTEM FOR EVALUATING OPTIMIZED CONCENTRATION TRAJECTORIES FOR DRUG ADMINISTRATION” (DEUTSCHES KREBSFORSCHUNGSZENTRUM STIFTUNG DES OEFFENTLICHEN …, priority 2019, published 2022).

Test [1] concerns triple-negative breast cancer cells. Particulars: sequential but not simultaneous application of erlotinib and doxorubicin, time interval of about 24 hours; cited from earlier work.
Test [2] deals with CD95-HeLa cells. Briefly: Live-cell imaging with drug perfusion: CD95L-induced apoptosis under RL-optimized versus constant concentration trajectory. The test is classed as cell-based, human. On the procedure: The experimental setup consisted of an automated live-cell microscope and infusion pumps for empty medium or CD95L stock solution placed inside a standard cell culture incubator. The microscope was combined with a surrounding, separable, autoclavable box for ensuring a sterile environment inside the incubator. Empty medium and the CD95L stock solution were guided through silicon tubes (inner diameter: 1 mm) connected to a t-shaped adapter piece. The t-adapter was connected with a microfluidic chip containing approximately 80,000 CD95-HeLa cells (human cervix carcinoma cell line overexpressing CD95 death receptors). Thereby, cells could be perfused by a mixture of CD95L stock solution and empty medium. For adjusting the CD95L concentration in each step of an experiment, a constant volume of 0.8 ml was infused. This volume comprised varying fractions of CD95L stock solution and empty medium. […] The total dose was set to 400 ng of CD95L according to a stock solution volume of 1.6 ml. Accordingly, cells could be perfused with CD95L at concentrations between zero and the stock concentration. During the experiment, images of the perfused cells were recorded every 3 minutes using the live-cell microscope. […]

As to `COc1cccc2c1C(=O)c1c(O)c3c(c(O)c1C2=O)C[C@@](O)(C(=O)CO)C[C@@H]3O[C@H]1C[C@H](N)[C@H](O)[C@H](C)O1` [doxorubicin], the cell death entry in test [1] is “maximizes cell death”. As to `C#Cc1cccc(Nc2ncnc3cc(OCCOC)c(OCCOC)cc23)c1` [erlotinib], the cell death entry in test [1] is on record as “maximizes cell death”.

B1: CD95L: CD95 cell death ligand; binds CD95 death receptors and induces apoptosis (protein, UniProt P48023 130-281, looked up)
Tumor necrosis factor ligand …: QIGHPSPPPEKKELRKVAHLTGKSNSRSMPLEWEDTYGIVLLSGVKYKKGGLVINETGLYFVYSKVYFRGQSCNNLPLSHKVYMRNSKYPQDLVMMEGKMMSYCTTGQMWARSSYLGAVFNLTSADHLYVNVSELSLVNFEESQTFFGLYKL
Take B1: the “cell death kinetics (apoptotic cell fractions)” value in test [2] (first RL-optimized CD95L concentration trajectory vs constant 50 ng/ml, same total dose 400 ng, 180 minutes, FIG. 13F) is “substantially accelerated cell death kinetics”. Moreover, in test [2] (optimized CD95L trajectory from second RL iteration vs constant concentration or first-iteration trajectory, total dose 400 ng, FIG. 14G), the “cell death (apoptotic cell fractions)” value is reported as “accelerated cell death”.
